The values below are quoted from earlier work in patent US5637565A, “Purified form of streptogramins, its preparation and pharmaceutical compositions containing it” (Rhone-Poulenc Rorer S.A., priority 1993, dated 1997).

For this data set the following is noted: purified crystalline product.

`CC1=C\[C@@H](O)CC(=O)Cc2nc(co2)C(=O)N2CCC=C2C(=O)O[C@H](C(C)C)[C@H](C)/C=C/C(=O)NC\C=C\1` [pristinamycin IIA]: the bioavailability result was “too low”.
